Measurements from patent publication US6680323B2, “Dihydropyrimidines and uses thereof” (Synaptic Pharmaceutical Corporation, priority 1998, dated 2004).
Counter-ions that a name gives are not always drawn.

Tests used:
human α1b receptor = biological target: T1, human α1b receptor (Homo sapiens, UniProt P35368); test: Radioligand binding ([3H]prazosin) at cloned human α1b receptor; settings: membranes of transfected LM(tk−) cells, [3H]prazosin 0.5 nM; read-out: Binding affinity hα1b
T1 construct: The entire coding region of α1b (1563 bp); expressed in transfected cells
T1 sequence (P35368 1-520): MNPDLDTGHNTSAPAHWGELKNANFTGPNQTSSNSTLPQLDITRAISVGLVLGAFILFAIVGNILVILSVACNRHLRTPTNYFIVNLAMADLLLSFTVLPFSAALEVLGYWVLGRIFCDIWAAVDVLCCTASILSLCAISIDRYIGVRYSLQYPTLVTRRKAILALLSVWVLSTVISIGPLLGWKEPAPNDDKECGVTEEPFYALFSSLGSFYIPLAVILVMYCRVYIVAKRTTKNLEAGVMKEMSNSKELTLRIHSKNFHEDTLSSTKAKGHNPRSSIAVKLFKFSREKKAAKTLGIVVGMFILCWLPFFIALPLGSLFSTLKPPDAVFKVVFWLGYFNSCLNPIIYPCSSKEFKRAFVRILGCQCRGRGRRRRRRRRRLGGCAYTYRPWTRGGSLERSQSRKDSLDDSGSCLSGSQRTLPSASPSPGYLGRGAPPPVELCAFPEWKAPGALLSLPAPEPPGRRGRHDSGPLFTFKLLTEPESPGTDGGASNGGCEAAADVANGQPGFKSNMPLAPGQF
Method: (§1) The activity of compounds at the different human receptors was determined in vitro using cultured cell lines that selectively express the receptor of interest. These cell lines were prepared by transfecting the cloned cDNA or cloned genomic DNA or constructs containing both genomic DNA and cDNA encoding the human α-adrenergic receptors as follows:
α1b Human Adrenergic Receptor
The entire coding region of α1b (1563 bp), including 200 base pairs and 5′ untranslated sequence (5′ UT) and 600 bp of 3′ untranslated sequence (3′ UT), was cloned into the EcoRI site of pCEXV-3 eukaryotic expression vector.
The construct involved ligating the full-length containing EcoRI brainstem cDNA fragment from λ ZapII into the expression vector. Stable cell lines were selected as described above. The cell line used herein was designated L-α1B and was deposited with the American Type Culture Collection, 12301 Parklawn Drive, Rockville, Md. 20852, U.S.A. under the provisions of the Budapest Treaty for the International Recognition of the Deposit of Microorganisms for the Purposes of Patent Procedure. The cell line L-α1B was accorded ATCC Accession No. CR 11139, on Sep. 29, 1992.
(§2) Radioligand Binding Assays for α1 Receptors
(§3) Transfected cells from culture flasks were scraped into 5 ml of 5 mM Tris-HCl, 5 mM EDTA, pH 7.5, and lysed by sonication. The cell lysates were centrifuged at 1000 rpm for 5 min at 4° C., and the supernatant was centrifuged at 30,000×g for 20 min at 4° C. The pellet was suspended in 50 mM Tris-HCl, 1 mM MgCl2, and 0.1% ascorbic acid at pH 7.5. Binding of the α1 antagonist [^3H]prazosin (0.5 nM, specific activity 76.2 Ci/mmol) to membrane preparations of LM(tk−) cells was done in a final volume of 0.25 ml and incubated at 37° C. for 20 min. Nonspecific binding was determined in the presence of 10 μM phentolamine. The reaction was stopped by filtration through GF/B filters using a cell harvester. Inhibition experiments, routinely consisting of 7 concentrations of the tested compounds, were analyzed using a non-linear regression curve-fitting computer program to obtain Ki values.

human α1a receptor = biological target: T2, human α1a receptor (Homo sapiens, UniProt P35348); test: Radioligand binding ([3H]prazosin) at cloned human α1a receptor; settings: hα1a; membranes of transfected LM(tk−) cells, [3H]prazosin 0.5 nM; read-out: Binding affinity hα1a
T2 construct: expressed in transfected cells
T2 sequence (P35348 1-466): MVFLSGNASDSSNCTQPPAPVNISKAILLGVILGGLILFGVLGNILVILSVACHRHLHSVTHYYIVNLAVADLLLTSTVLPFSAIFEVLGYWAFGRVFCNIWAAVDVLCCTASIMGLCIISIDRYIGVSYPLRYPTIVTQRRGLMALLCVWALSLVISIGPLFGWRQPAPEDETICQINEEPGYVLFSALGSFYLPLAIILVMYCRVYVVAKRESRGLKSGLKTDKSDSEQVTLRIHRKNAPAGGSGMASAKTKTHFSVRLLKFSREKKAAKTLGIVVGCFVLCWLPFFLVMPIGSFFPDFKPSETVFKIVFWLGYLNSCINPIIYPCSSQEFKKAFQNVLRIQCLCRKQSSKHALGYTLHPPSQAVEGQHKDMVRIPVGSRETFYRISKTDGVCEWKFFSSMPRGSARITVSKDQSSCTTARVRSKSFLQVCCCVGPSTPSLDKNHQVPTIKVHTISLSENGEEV
Method: as §1
α1a Human Adrenergic Receptor
The entire coding region of α1a (1401 bp), including 400 base pairs of 5′ untranslated sequence (5′ UT) and 200 bp of 3′ untranslated sequence (3′ UT), was cloned into the KpnI site of the polylinker-modified pCEXV-3-derived eukaryotic expression vector, EXJ.RH. The construct involved ligating three partial overlapping fragments: a 5′ 0.6 kb HincII genomic clone, a central 1.8 EcoRI hippocampal cDNA clone,. and a 3′ 0.6 Kb PstI genomic clone. The hippocampal cDNA fragment overlaps with the 5′ and 3′ genomic clones so that the HincII and PstI sites at the 5′ and 3′ ends of the cDNA clone, respectively, were utilized for ligation. This full-length clone was cloned into the KpnI site of the expression vector, using the 5′ and 3′ KpnI sites of the fragment, derived from vector (i.e., pBluescript) and 31-untranslated sequences, respectively. Stable cell lines were selected as described above. The stable cell line expressing the human α1a receptor used herein was designated L-α1C (old nomenclature) and was deposited with the American Type Culture Collection, 12301 Parklawn Drive, Rockville, Md. 20852, U.S.A. under the provisions of the Budapest Treaty for the International Recognition of the Deposit of Microorganisms for the Purposes of Patent Procedure. The cell line expressing the human α1a receptor was accorded Accession No. CR 11140, on Sep. 25, 1992.
as §2, §3

Ki (human α1b receptor)	Ki (human α1a receptor)	Compound
1.5 µM	0.0003 µM	COCC1=C(C(=O)OC)[C@H](c2ccc(F)c(F)c2)N(C(=O)NCCCN2CCC(c3cccc[n+]3[O-])CC2)C(=O)N1 [Compound 2, (+)-1,2,3,6-Tetrahydro-1-{N-[4-(2-pyridyl)piperidin-1-yl]propyl}carboxamido-5-methoxycarbonyl-4-methoxymethyl-6-(3,4-difluorophenyl)-2-oxopyrimidine-pyridine-N-oxide hydrochloride]
> 50 µM	0.26 µM	COCC1=C(C(=O)OC)[C@H](c2ccc(F)c(F)c2)N(C(=O)NCCCO)C(=O)N1 [Compound 1, (+)-1,2,3,6-Tetrahydro-1-(3-hydroxypropyl)carboxamido-5-methoxycarbonyl-4-methoxymethyl-6-(3,4-difluorophenyl)-2-oxo-pyrimidine]
> 2 µM	> 0.5 µM	O=C(O)CCNC(=O)N1C(=O)NC2=C(C(=O)OC2)[C@@H]1c1ccc(F)c(F)c1 [Compound 9]
1.6 µM	0.003 µM	O=C1OCC2=C1C(c1ccc(F)c(F)c1)N(C(=O)NCCCN1CCC(c3ccccn3)CC1)C(=O)N2 (single isomer, unassigned; (+)) [Compound 8, (+)-1-3-{[4-(3,4-Difluorophenyl)-2,5-dioxo-1,2,5,7-tetrahydro-4H-furo[3,4-d]-pyrimidine-3-carbonyl]amino}-propyl-4-(2-pyridyl)-piperidine]
> 2 µM	0.212 µM	COCC1=C(C(=O)OC)[C@H](c2ccc(F)c(F)c2)N(C(=O)NCCC[n+]2ccc(-c3ccccn3)cc2)C(=O)N1 [Compound 3, 4-(2-Pyridyl)-1-{3-[5-carboxymethyl-4-methoxymethyl-2-oxo-6(S)-(3,4-difluorphenyl)-1,2,3,6-tetrahydropyrimidin-1-yl]carboxyaminopropyl}pyridinium chloride]
0.53 µM	0.0008 µM	COC(=O)C1=C(CO)NC(=O)N(C(=O)NCCCN2CCC(c3ccccn3)CC2)[C@H]1c1ccc(F)c(F)c1 [Compound 7, (+)-1,2,3,6-Tetrahydro-1-{N-[4-(2-pyridyl)piperidin-1-yl]propyl}carboxamido-5-methoxycarbonyl-4-hydroxymethyl-6-(3,4-difluorophenyl)-2-oxopyrimidine]
